Test results taken from US8138212B2, “Synergistic microbicidal compositions” (Rohm and Haas Company, priority 2009, dated 2012).
Like-named read-outs stand apart in the source and are kept apart here.

Experiments:
Type in all cases: cell-based
[1] = tested on: Candida albicans (C. albicans—ATCC 10231); assay: Synergy test, microtiter plate high resolution MIC assay, yeast; conditions: for MIC: Candida albicans
Text: (§1) One skilled in the art will recognize that the sensitivity of other microorganisms to the particular combinations will vary and, as a result, the concentrations, the ratios, for each, or both, of the compounds may vary from those detailed in these examples. The concentrations and ratios may also vary under different test conditions or with different test methods. One measure of synergy is the industrially accepted method described by Kull, […]. and Mayer, R. L., in Applied Microbiology 9:538-541 (1961), using the ratio determined by the formula: Qa/QA+Qb/QB=Synergy Index (“SI”) wherein: • QA=concentration of compound A (first component) in ppm, acting alone, which produced an end point (MIC of Compound A). • Qa=concentration of compound A in ppm, in the mixture, which produced an end point. • QB=concentration of compound B (second component) in ppm, acting alone, which produced an end point (MIC of Compound B). • Qb=concentration of compound B in ppm, in the mixture, which produced an end point. When the sum of Qa/QA and Qb/QB is greater than one, antagonism is indicated. […] The lower the SI, the greater is the synergy shown by that particular mixture. The minimum inhibitory concentration (MIC) of a microbicide is the lowest concentration tested under a specific set of conditions that prevents the growth of the tested microorganisms. Synergy tests were conducted using standard microtiter plate assays with media designed for optimal growth of the test microorganism. Minimal salt medium supplemented with 0.2% glucose and 0.1% yeast extract ([…] medium) was used for testing bacteria; Potato Dextrose Broth (PDB medium) was used for testing yeast and mold. In this method, a wide range of combinations of microbicides and other personal care raw materials was tested by conducting high resolution MIC assays in the presence of various concentrations of MIT, or BIT. […] The synergy of the combinations of the present invention was determined against a bacterium, Escherichia coli (E. coli-ATCC #8739), and/or a yeast, Candida albicans (C. albicans-ATCC 10231), and/or a mold, Aspergillus niger (A. niger-ATCC 16404). The bacteria were used at a concentration of about 5×10^6 bacteria per mL and the yeast and mold at 5×10^5 fungi per mL. These microorganisms are representative of natural contaminants in many consumer and industrial applications. […] (yeast and mold) or 30° C. (bacteria). […] In each test, First Component (A) was MIT and the Second Component (B) was the other microbicide, formulation ingredient, or raw material.

[2] = tested on: Aspergillus niger (A. niger—ATCC 16404); assay: Synergy test, microtiter plate high resolution MIC assay, mold; conditions: for MIC: Aspergillus niger
Text: as §1

[3] = tested on: Escherichia coli (E. coli—ATCC #8739); assay: Synergy test, microtiter plate high resolution MIC assay, bacterium; conditions: E. coli 8739, M9GY medium; for MIC: Escherichia coli, read-out: QB: MIC of second component (B) acting alone
Text: as §1

[4] = C. albicans 10231, PDB medium, 1 day
[5] = C. albicans 10231, PDB medium, 2 days
[6] = C. albicans 10231, PDB medium, 3 days
[7] = A. niger 16404, PDB medium, 3 days
[8] = A. niger 16404, PDB medium, 6 days
[9] = A. niger 16404, PDB medium, 10 days
[10] = ATCC16404, 72 h, A. niger 16404, PDB medium, 3 days, read-out: QB: MIC of second component (B) acting alone
[11] = ATCC10231, 24 h, C. albicans 10231, PDB medium, 1 day, read-out: QB: MIC of second component (B) acting alone
[12] = ATCC10231, 48 h, C. albicans 10231, PDB medium, 2 days, read-out: QB: MIC of second component (B) acting alone
[13] = ATCC16404, 240 h, A. niger 16404, PDB medium, 10 days, read-out: QB: MIC of second component (B) acting alone

SMILES	MIC ([3]; ATCC8739, 24 h, 1 day) [µg/mL]	MIC [1, 12] [µg/mL]	SI (Synergy Index, Qa/QA+Qb/QB) [1, 4]	SI (Synergy Index, Qa/QA+Qb/QB) [1, 5]	SI (Synergy Index, Qa/QA+Qb/QB) [1, 6]	SI (Synergy Index, Qa/QA+Qb/QB) [2, 7]	SI (Synergy Index, Qa/QA+Qb/QB) [2, 8]	SI (Synergy Index, Qa/QA+Qb/QB) [2, 9]	SI (Synergy Index, Qa/QA+Qb/QB) ([3]; 1 day)	other results
Cn1sccc1=O [MIT, 2-methyl-4-isothiazolin-3-one]			1.00	1.00	1.00	1.00	1.00	1.00		MIC ([1]; ATCC10231, 24 h, read-out: QA: MIC of first component (A) acting alone): 200 µg/mL; MIC ([1]; ATCC10231, 48 h, read-out: QA: MIC of first component (A) acting alone): 200 µg/mL; MIC ([1]; ATCC10231, 72 h, read-out: QA: MIC of first component (A) acting alone): 200 µg/mL; QA: MIC of first component (A) acting alone [2, 7]: 200 ppm; MIC ([2]; ATCC16404, 72 h, read-out: QA: MIC of first component (A) acting alone, A. niger 16404, PDB medium, 3 days): 300 µg/mL; MIC ([2]; ATCC16404, 144 h, read-out: QA: MIC of first component (A) acting alone, A. niger 16404, PDB medium, 6 days): 300 µg/mL; MIC ([2]; ATCC16404, 240 h, read-out: QA: MIC of first component (A) acting alone, A. niger 16404, PDB medium, 10 days): 300 µg/mL
O=c1[nH]sc2ccccc12 [BIT, 1,2-benzisothiazolin-3-one]			1.00	1.00	1.00	1.00	1.00	1.00	1.00	QA: MIC of first component (A) acting alone ([3]; 1 day): 15 ppm; QA: MIC of first component (A) acting alone ([3]; 2 days): 15 ppm; SI (Synergy Index, Qa/QA+Qb/QB) ([3]; 2 days): 1.00; QA: MIC of first component (A) acting alone ([3]; 3 days): 15 ppm; SI (Synergy Index, Qa/QA+Qb/QB) ([3]; 3 days): 1.00; QA: MIC of first component (A) acting alone [1, 4]: 20 ppm; QA: MIC of first component (A) acting alone [2, 8]: 20 ppm; QA: MIC of first component (A) acting alone [2, 9]: 20 ppm
COc1ccc(C(=O)O)cc1 [anisic acid, 4-methoxybenzoic acid]	8000					1.00			1.00	MIC [2, 10]: 2000 µg/mL
O=C(O)CC(NC(CC(=O)O)C(=O)O)C(=O)O (stereo not shown) [IDS, iminodisuccinate]				1.00		1.00				QB: MIC of second component (B) acting alone [2, 7]: 5000 ppm
CC(C(=O)O)N(CC(=O)O)CC(=O)O (stereo not shown) [MDGA, methyl glycine diacetic acid]					1.00			1.00		
CC(O)COc1ccccc1 (stereo not shown) [phenoxypropanol, propylene glycol phenyl ether]					1.00	1.00				MIC ([1]; ATCC10231, 72 h, C. albicans 10231, PDB medium, 3 days, read-out: QB: MIC of second component (B) acting alone): 5000 µg/mL; MIC [2, 10]: 3000 µg/mL
O=C(O)CN(CCN(CC(=O)O)CC(=O)O)CCN(CC(=O)O)CC(=O)O [DTPA, diethylene triamine pentacetic acid]			1.00			1.00	1.00			QB: MIC of second component (B) acting alone [1, 4]: 2000 ppm; QB: MIC of second component (B) acting alone [2, 7]: 800 ppm; QB: MIC of second component (B) acting alone [2, 8]: 2000 ppm

The next lines start with results.

MIC ([3]; ATCC8739, 24 h, 1 day) [µg/mL]	MIC [1, 12] [µg/mL]	SMILES	SI (Synergy Index, Qa/QA+Qb/QB) [1, 4]	SI (Synergy Index, Qa/QA+Qb/QB) [1, 5]	SI (Synergy Index, Qa/QA+Qb/QB) [1, 6]	SI (Synergy Index, Qa/QA+Qb/QB) [2, 7]	SI (Synergy Index, Qa/QA+Qb/QB) [2, 8]	SI (Synergy Index, Qa/QA+Qb/QB) [2, 9]	SI (Synergy Index, Qa/QA+Qb/QB) ([3]; 1 day)	other results
	2000	CCCCCCCCC(O)CO (stereo not shown) [decylene glycol, 1,2-decanediol]	1.00	1.00		1.00				MIC [1, 11]: 2000 µg/mL; MIC [2, 10]: 2000 µg/mL
5000	2000	CCC(=O)O [propionic acid, ethanecarboxylic acid]	1.00	1.00				1.00	1.00	MIC [1, 11]: 2000 µg/mL; MIC [2, 13]: 500 µg/mL
	2000	CCCCCCCCCC(=O)O [capric acid, decanoic acid]		1.00			1.00			SI (Synergy Index, Qa/QA+Qb/QB) ([3]; 3 days): 1.00; MIC ([3]; ATCC8739, 72 h, 3 days): 10000 µg/mL; MIC ([2]; ATCC16404, 144 h, A. niger 16404, PDB medium, 6 days, read-out: QB: MIC of second component (B) acting alone): 5000 µg/mL
8000		O=C(O)/C=C\C(=O)O [maleic acid, 2-butenedioic acid]		1.00					1.00	
5000	3000	O=P(O)(O)O[C@H]1[C@H](OP(=O)(O)O)[C@@H](OP(=O)(O)O)[C@H](OP(=O)(O)O)[C@@H](OP(=O)(O)O)[C@H]1OP(=O)(O)O [phytic acid, inositol hexaphosphoric acid]		1.00				1.00	1.00	MIC [2, 13]: 20000 µg/mL
